# According to patent US20050032912A1, “Anaesthetic compositions and method for their administration” (priority 2001, published 2005):
# Entries after “also recorded” stand apart in the source; their conditions may differ.
# Experiments:
# Solubility in water = assay type: physicochemical
# Procedure: Other anaesthetic agents are administered to the patient by means of injection. Although generally less desirable than inhaled agents for reasons of ease of administration and the maintenance of a controlled amount of the anaesthetic composition, these are used in an variety of applications. For example, propofol is a widely used anaesthetic administered to the patient by injection. The anaesthetic agents is propofol contained in an appropriate formulation. […] Propofol must be thoroughly distributed in any anaesthetic formulation, and generally brought in to solution, because the administration of propofol itself in to the patient's blood stream can cause severe problems.
# Preparation of anaesthetic formulations of the invention is generally straightforward.
# In addition, some poloxamers require increased temperatures in order to satisfactorily micellise in water. In general, concentrations of poloxamer of about 10% w/v are useful in the present invention, but concentrations of poloxamers, whether single or mixed, can be selected as appropriate and will generally be above 0.5% and below about 20%. More preferred concentrations are from 5% to 15%. Some poloxamers will begin to gel at higher concentrations, and any poloxamer concentration that gels at body temperature, especially when in association with propofol, should be avoided for injection purposes.
# [1] = cited from earlier work
# [2] = tested on: patients who have Parkinson's disease; settings: cited from earlier work
# [3] = Solubilisation of propofol in aqueous poloxamer solution (micellar)
structure (smiles),measurement,setting,value
CC(C)c1cccc(C(C)C)c1O [propofol],solubility in water (in words),Solubility in water,virtually insoluble in water; also recorded: not readily soluble in water
same,half-life in the bloodstream,"[1]; bloodstream, patient",nine
same,concentration in the body,[1]; three days after propofol anaesthesia,less than 0.02 mg/kg bodyweight
same,duration of tremor reduction,[2]; after propofol anaesthesia,up to three
same,effect on tremors (in words),[2]; after-effect of propofol anaesthesia,reduction in tremors
same,maximum concentration of propofol,"[3]; 10% w/w poloxamer in water, poloxamer P237",about 3.2%
same,propofol dissolved,[3]; poloxamer P407,1.7%
